melting point: 130 to 134 °C
SMILES: Brc1ccc(C2CCC(NC(Cc3ccccc3)c3ccccc3)=N2)cc1 (stereo not shown)

— patent publication US8221775B2, “Pyrrolin-2-ylamino compounds for combating animal pests” (BASF SE, priority 2008, dated 2012)
